Drawing on patent EP1541198A1, “Cycloalkyl compounds as anti-inflammatory, immunomodulatory and anti-proliferatory agents” (4SC AG, priority 2003, dated 2005), this text covers IC50 for 9 molecules.

Broadly, the IC50 is the point on the concentration scale where inhibition reaches its midpoint.

T1 sequence (Q02127 whole entry): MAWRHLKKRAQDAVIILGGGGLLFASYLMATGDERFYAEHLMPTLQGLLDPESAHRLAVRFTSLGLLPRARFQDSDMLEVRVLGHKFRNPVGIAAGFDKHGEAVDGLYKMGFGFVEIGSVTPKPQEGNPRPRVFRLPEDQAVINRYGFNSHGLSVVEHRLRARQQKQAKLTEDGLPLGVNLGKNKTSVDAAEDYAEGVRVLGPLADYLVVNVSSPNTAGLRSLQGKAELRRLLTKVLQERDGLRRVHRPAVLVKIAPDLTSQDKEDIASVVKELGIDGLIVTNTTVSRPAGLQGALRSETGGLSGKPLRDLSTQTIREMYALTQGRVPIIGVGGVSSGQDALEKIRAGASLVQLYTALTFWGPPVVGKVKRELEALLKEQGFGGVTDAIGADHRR

This assay concerns the target T1, human DHODH (Homo sapiens, UniProt Q02127).
T1 construct: Prof; M. Löffler, Marburg, Germany (gift, not a commercial vendor)
Kind of assay: Inhibition Assay of DHODH activity. The format is biochemical. The settings on record: recombinant human DHODH; 50 mM TrisHCl, pH 8,0, 30°C; decrease in absorption at 600 nm. As for the experimental part: 4. Inhibition Assay of DHODH activity
The standard assay mixture contained 50 µM decyclo ubichinone, 100 µM dihydroorotate, 60 µM 2,6-dichloroindophenol, as well as 20 mU DHODH. The volume activity of the recombinant enzyme used was 30 U/ml. Measurements were conducted in 50 mM TrisHCl (150 mM KCl, 0,1% Triton X-100, pH 8,0) at 30°C in a final volume of 1 ml. The components were mixed, and the reaction was started by adding dihydroorotate. The course of reaction was followed by spectrophotometrically measuring the decrease in absorption at 600 nm for 2 min. Inhibitory studies were conducted in a standard assay with additional variable amounts of inhibitor. […] These investigations were carried out with recombinant human as well as with recombinant murine DHODH provided by Prof. M. Löffler, Marburg, Germany [M. Löffler, Chem. Biol. Interact.
In the case of `COc1cccc(-c2ccc(NC(=O)[C@@H]3CCC[C@H]3C(=O)O)c(F)c2)c1` (relative stereo) [Example 1, trans 2-(3-Fluoro-3' methoxy-biphenyl-4-ylcarbamoyl)-cyclopentane carboxylic acid], the half-inhibitory concentration (IC50) is 5 to 20 µM.

As for `COc1cccc(-c2ccc(NC(=O)[C@H]3CCC[C@H]3C(=O)O)c(F)c2)c1` (relative stereo) [Example 2, cis 2-(3-Fluoro-3' methoxy-biphenyl-4-ylcarbamoyl)-cyclopentane carboxylic acid], the concentration for half-maximal inhibition (IC50) is less than 5 µM.

As to `O=C(O)C1CCCC1C(=O)Nc1c(F)cc(-c2ccccc2Cl)cc1F` (stereo not drawn) [Example 3, 2-(2'-Chloro-3,5-difluoro-biphenyl-4-ylcarbamoyl)-cyclopentane carboxylic acid], the IC50 is less than 5 µM.

As to `COc1ccc(-c2cc(F)c(NC(=O)C3CCCC3C(=O)O)c(F)c2)c(OC)c1` (stereo not drawn) [Example 4, 2-(3,5-Difluoro-2',4'-dimethoxy-biphenyl-4-ylcarbamoyl)-cyclopentane carboxylic acid], the IC50 lay within 5 to 20 µM.

For `CCOc1cccc(-c2cc(F)c(NC(=O)C3CCCC3C(=O)O)c(F)c2)c1` (stereo not drawn) [Example 5, 2-(3'-Ethoxy-3,5-difluoro-biphenyl-4-ylcarbamoyl)-cyclopentane carboxylic acid], the concentration for half-maximal inhibition (IC50) was less than 5 µM.

In the case of `CCOc1ccccc1-c1cc(F)c(NC(=O)C2CCCC2C(=O)O)c(F)c1` (stereo not drawn) [Example 6, 2-(2'-Ethoxy-3,5-difluoro-biphenyl-4-ylcarbamoyl)-cyclopentane carboxylic acid], the half-maximal inhibitory concentration (IC50) lay in the range of 5 to 20 µM.

Consider `O=C(O)C1CCCC1C(=O)Nc1ccc(-c2ccccc2)cc1` (stereo not drawn) [Example 7, 2-(Biphenyl-4-ylcarbamoyl)-cyclopentane carboxylic acid], for which the half-inhibitory concentration (IC50) is less than 5 µM.

Take `O=C(O)C1CCCC1C(=O)Nc1c(F)c(F)c(-c2cccc(OC(F)(F)F)c2)c(F)c1F` (stereo not drawn) [Example 8, 2-(2,3,5,6-Tetrafluoro 3'-trifluoromethoxy-biphenyl-4-ylcarbamoyl)-cyclo-pentane carboxylic acid]: the IC50 was less than 5 µM.

With `O=C(O)C1CCCC1C(=O)Nc1c(F)cc(-c2cccc(OC(F)(F)F)c2)cc1F` (stereo not drawn) [Example 9, 2-(3,5-Difluoro-3'-trifluoromethoxy-biphenyl-4-ylcarbamoyl)-cyclopentane carboxylic acid], the 50% inhibitory concentration (IC50) is less than 5 µM.
